# Measured values as given in ChEMBL document CHEMBL5052856, “Inhibitors of apol1 and methods of using same” (2021).
# pIC50: −log10 of the molar value.
# Key:
# [1] = tested on: Trypanosoma brucei brucei; test: Antitrypanosomal activity against Trypanosoma brucei brucei assessed as trypanosome lysis using recombinant APOL1 protein G1 variant and measured by Alamar blue based fluoresence assay; type: functional, organism-based
# Apolipoprotein L1 = Apolipoprotein L1 (Homo sapiens, UniProt O14791); test: Inhibition of APOL1 G1 variant in human HEK293-T-REx cells measured by Thallium assay; type: cell-based
SMILES,pIC50 [1],pIC50 (Apolipoprotein L1)
C[C@H](O)[C@@H](CO)NC(=O)[C@H]1C[C@H](c2c(-c3ccc(F)cc3)[nH]c3c(F)cc(F)cc32)C1,> 6.60,> 6.60
O=C(CC1CC(c2c(-c3ccc(F)cc3)[nH]c3c(F)cc(F)cc23)C1)N[C@@H](CO)C(F)(F)F (stereo partly specified),,< 6.00
CC(C)C(CO)NC(=O)[C@H]1C[C@H](c2c(-c3ccc(F)cc3)[nH]c3c(F)cc(F)cc32)C1 (stereo partly specified),6.60,< 6.00
CC(C)(CO)NC(=O)[C@H]1C[C@H](c2c(-c3ccc(F)cc3)[nH]c3c(F)cc(F)cc32)C1,6.60,> 6.60
O=C(NCC(F)(F)F)[C@H]1C[C@H](c2c(-c3ccc(F)cc3)[nH]c3c(F)cc(F)cc32)C1,< 6.00,9.60
COC1CC1NC(=O)[C@H]1C[C@H](c2c(-c3ccc(F)cc3)[nH]c3c(F)cc(F)cc32)C1 (stereo partly specified),< 6.00,< 6.00
O=C(CC1CC(c2c(-c3ccc(F)cc3)[nH]c3c(F)cc(F)cc23)C1)N[C@H](CO)C(F)(F)F (stereo partly specified),,< 6.00
O=C(NC1CC(O)C1)[C@H]1C[C@H](c2c(-c3ccc(F)cc3)[nH]c3c(F)cc(F)cc32)C1 (stereo partly specified),6.60,9.60
Cc1ccn(CCNC(=O)[C@H]2C[C@H](c3c(-c4ccc(F)cc4)[nH]c4c(F)cc(F)cc43)C2)n1,6.60,< 6.00
NCCCNC(=O)[C@H]1C[C@H](c2c(-c3ccc(F)cc3)[nH]c3c(F)cc(F)cc32)C1,> 6.60,9.60
O=C(O)CNC(=O)[C@H]1C[C@H](c2c(-c3ccc(F)cc3)[nH]c3c(F)cc(F)cc32)C1,< 6.00,< 6.00
O=C(NCC1CC(F)(F)C1)[C@H]1C[C@H](c2c(-c3ccc(F)cc3)[nH]c3c(F)cc(F)cc32)C1,< 6.00,< 6.00
O=C(NC1CCOC1)[C@H]1C[C@H](c2c(-c3ccc(F)cc3)[nH]c3c(F)cc(F)cc32)C1 (stereo partly specified),6.60,< 6.00
O=C1CC(NC(=O)[C@H]2C[C@H](c3c(-c4ccc(F)cc4)[nH]c4c(F)cc(F)cc43)C2)CN1 (stereo partly specified),< 6.00,< 6.00
COCCNC(=O)[C@H]1C[C@H](c2c(-c3ccc(F)cc3)[nH]c3c(F)cc(F)cc32)C1,6.60,< 6.00
O=C(N[C@@H]1CCOC1)[C@H]1C[C@H](c2c(-c3ccc(F)cc3)[nH]c3c(F)cc(F)cc32)C1,6.60,9.60
CN1CCC(NC(=O)[C@H]2C[C@H](c3c(-c4ccc(F)cc4)[nH]c4c(F)cc(F)cc43)C2)C1=O (stereo partly specified),6.60,> 6.60
O=C(NCCn1cncn1)[C@H]1C[C@H](c2c(-c3ccc(F)cc3)[nH]c3c(F)cc(F)cc32)C1,> 6.60,> 6.60
CC(CO)CNC(=O)[C@H]1C[C@H](c2c(-c3ccc(F)cc3)[nH]c3c(F)cc(F)cc32)C1 (stereo partly specified),6.60,9.60
O=C(NCCn1cnnc1)[C@H]1C[C@H](c2c(-c3ccc(F)cc3)[nH]c3c(F)cc(F)cc32)C1,< 6.00,< 6.00
CC(C)CC(NC(=O)[C@H]1C[C@H](c2c(-c3ccc(F)cc3)[nH]c3c(F)cc(F)cc32)C1)C(N)=O (stereo partly specified),< 6.00,< 6.00
NC(=O)CNC(=O)[C@H]1C[C@H](c2c(-c3ccc(F)cc3)[nH]c3c(F)cc(F)cc32)C1,> 6.60,> 6.60
O=C(N[C@H]1C[C@H](O)C1)[C@H]1C[C@H](c2c(-c3ccc(F)cc3)[nH]c3c(F)cc(F)cc32)C1,6.60,< 6.00
O=C1NCCC1NC(=O)[C@H]1C[C@H](c2c(-c3ccc(F)cc3)[nH]c3c(F)cc(F)cc32)C1 (stereo partly specified),> 6.60,> 6.60
O=C(NCCn1cccc1)[C@H]1C[C@H](c2c(-c3ccc(F)cc3)[nH]c3c(F)cc(F)cc32)C1,6.60,< 6.00

SMILES,pIC50 [1],pIC50 (Apolipoprotein L1)
Cc1cc(CNC(=O)[C@H]2C[C@H](c3c(-c4ccc(F)cc4)[nH]c4c(F)cc(F)cc43)C2)on1,6.60,< 6.00
C[C@@H](NC(=O)[C@H]1C[C@H](c2c(-c3ccc(F)cc3)[nH]c3c(F)cc(F)cc32)C1)C(N)=O,< 6.00,9.60
C[C@@H](CO)NC(=O)[C@H]1C[C@H](c2c(-c3ccc(F)cc3)[nH]c3c(F)cc(F)cc32)C1,> 6.60,> 6.60
NCC(O)CNC(=O)[C@H]1C[C@H](c2c(-c3ccc(F)cc3)[nH]c3c(F)cc(F)cc32)C1 (stereo partly specified),6.60,9.60
O=C(NCC1CCOCC1)[C@H]1C[C@H](c2c(-c3ccc(F)cc3)[nH]c3c(F)cc(F)cc32)C1,< 6.00,< 6.00
O=C1NCCCC1NC(=O)[C@H]1C[C@H](c2c(-c3ccc(F)cc3)[nH]c3c(F)cc(F)cc32)C1 (stereo partly specified),6.60,9.60
C[C@H](CO)NC(=O)C1CCC(c2c(-c3ccc(F)cc3)[nH]c3c(F)cc(F)cc23)C1 (stereo partly specified),,< 6.00
O=C(NCC(F)F)N1CC(c2c(-c3ccc(F)cc3)[nH]c3c(F)cc(F)cc23)C1,,9.60
COCCNC(=O)CC1CC(c2c(-c3ccc(F)cc3)[nH]c3c(F)cc(F)cc23)C1 (stereo unspecified),,< 6.00
Cc1cnc(NC(=O)[C@H]2C[C@H](c3c(-c4ccc(F)cc4)[nH]c4c(F)cc(F)cc43)C2)o1,> 6.60,≤ 6.60
CCNC(=O)N1CC(c2c(-c3ccc(F)cc3)[nH]c3c(F)cc(F)cc23)C1,,9.60
Cc1cc(NC(=O)[C@H]2C[C@H](c3c(-c4ccc(F)cc4)[nH]c4c(F)cc(F)cc43)C2)no1,6.60,9.60
O=C(NC(CO)CO)[C@H]1C[C@H](c2c(-c3ccc(F)cc3)[nH]c3c(F)cc(F)cc32)C1,> 6.60,> 6.60
CS(=O)(=O)CCNC(=O)[C@H]1C[C@H](c2c(-c3ccc(F)cc3)[nH]c3c(F)cc(F)cc32)C1,< 6.00,> 6.60
O=C(NC1(CO)CCC1)[C@H]1C[C@H](c2c(-c3ccc(F)cc3)[nH]c3c(F)cc(F)cc32)C1,> 6.60,> 6.60
Cn1cc(CNC(=O)[C@H]2C[C@H](c3c(-c4ccc(F)cc4)[nH]c4c(F)cc(F)cc43)C2)cn1,6.60,< 6.00
Cn1ccc(NC(=O)[C@H]2C[C@H](c3c(-c4ccc(F)cc4)[nH]c4c(F)cc(F)cc43)C2)n1,6.60,< 6.00
CNC(=O)C(C)NC(=O)[C@H]1C[C@H](c2c(-c3ccc(F)cc3)[nH]c3c(F)cc(F)cc32)C1 (stereo partly specified),6.60,9.60
O=C1CCC(NC(=O)[C@H]2C[C@H](c3c(-c4ccc(F)cc4)[nH]c4c(F)cc(F)cc43)C2)C(=O)N1 (stereo partly specified),6.60,9.60
NC(=O)C(CO)NC(=O)[C@H]1C[C@H](c2c(-c3ccc(F)cc3)[nH]c3c(F)cc(F)cc32)C1 (stereo partly specified),> 6.60,> 6.60
CC(CO)NC(=O)[C@H]1C[C@H](c2c(-c3ccc(F)cc3)[nH]c3c(F)cc(F)cc32)C1 (stereo partly specified),> 6.60,> 6.60
O=C(CC1CC(c2c(-c3ccc(F)cc3)[nH]c3c(F)cc(F)cc23)C1)NCCO (stereo unspecified),,< 6.00
CC(C)(NC(=O)[C@H]1C[C@H](c2c(-c3ccc(F)cc3)[nH]c3c(F)cc(F)cc32)C1)C(N)=O,> 6.60,9.60
O=C(N[C@H]1CCNC1=O)O[C@H]1C[C@H](c2c(-c3ccc(F)cc3)[nH]c3c(F)cc(F)cc32)C1 (relative stereo),,< 6.00
O=C(NC[C@@H](O)C(F)(F)F)NC[C@H]1C[C@H](c2c(-c3ccc(F)cc3)[nH]c3c(F)cc(F)cc32)C1 (relative stereo),,< 6.00
